Patent US20110172296A1, “MODULATION OF TRANSFORMING GROWTH FACTOR-BETA 1 EXPRESSION” (priority 2010, published 2011)
Several values for one entry are separate records, joined by “and”; a condition that tells them apart may be missing. Identical values can stand only once. e = 2'-O-(2-methoxyethyl) (MOE); d = 2'-deoxy (DNA)

Columns and labels:
[1] = test system: BALB/c mice; assay: Tolerability in BALB/c mice: liver, kidney and spleen weights (Example 8); type: in vivo, mouse
Procedure: The mice were sacrificed 2 days after the last administration and liver, spleen and kidney weights were measured. Plasma transaminase levels were also evaluated.
The weights of liver, kidney and spleen of the mice were measured after 4 weeks and liver weights are presented in Table 10 as a percentage change compared to the corresponding weights in the PBS control. The percentage changes in kidney and spleen weight in the treated mice compared to the PBS control were negligible and are not shown.

[2] = test system: human TGF-beta1 mRNA; assay: Antisense inhibition of human TGF-beta1 mRNA in HuVEC cells, single 10 nM dose, Lipofectamine 2000 (Example 2); type: cell-based
Procedure, shortened: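 HuVEC cells (5,000/well) transfected with 10 nM 2-13-5 MOE gapmer (phosphorothioate, 5-methylcytosine) via Lipofectamine 2000 for 4 h, then recovered ~24 h. mRNA measured by qRT-PCR, normalized to RIBOGREEN total RNA; percent inhibition versus untreated cells.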

[3] = test system: human TGF-beta1 mRNA; assay: Dose-dependent antisense inhibition of human TGF-beta1 in HuVEC cells, Lipofectamine 2000, 0.9375-30 nM (Example 3); type: cell-based; conditions: Lipofectamine 2000
Procedure: Cells were plated at a density of 5,000 cells per well and transfected using Lipofectamine™ 2000 reagent with 0.9375 nM, 1.875 nM, 3.75 nM, 7.5 nM, 15 nM, and 30 nM concentrations of antisense oligonucleotide for 4 hours, as specified in Table 3. After a recovery period of approximately 16 hours, RNA was isolated from the cells and TGF-beta1 mRNA levels were measured by quantitative real-time PCR. Human TGF-beta1 primer probe set RTS 2980 (forward sequence CTCTCCGACCTGCCACAGA, SEQ ID NO: 160; reverse sequence […], SEQ ID NO: 53; probe sequence CCCTATTCAAGACCACCCACCTTCTGGTX, SEQ ID NO: 161) was used to measure mRNA levels. TGF-beta1 mRNA levels were adjusted according to total RNA content, as measured by RIBOGREEN®. Results are presented as percent inhibition of TGF-beta1, relative to untreated control cells.

[4] = test system: human TGF-beta1 mRNA; assay: Dose-dependent antisense inhibition of human TGF-beta1 in HuVEC cells, Lipofectamine 2000, 0.3292-80 nM, comparison with oligos of U.S. Pat. No. 6,436,909 (Example 4); type: cell-based
Procedure: The dose-dependent antisense inhibition potential of these gapmers was compared with that of Oligo IDs 104992 and 1138498 from U.S. Pat. No. 6,436,909. Cells were plated at a density of 5,000 cells per well and transfected using Lipofectamine™ 2000 reagent with 0.3292 nM, 0.9877 nM, 2.963 nM, 8.8889 nM, 26.6667 nM, and 80 nM concentrations of antisense oligonucleotide for 4 hours, as specified in Table 4. After a recovery period of approximately 16 hours, RNA was isolated from the cells and TGF-beta1 mRNA levels were measured by quantitative real-time PCR. Human TGF-beta1 primer probe set RTS 2980 was used to measure mRNA levels. TGF-beta1 mRNA levels were adjusted according to total RNA content, as measured by RIBOGREEN®. Results are presented as percent inhibition of TGF-beta1, relative to untreated control cells. […] All the antisense oligonucleotides in Table 4 target human TGF-beta1 mRNA (SEQ ID NO: 1).

[5] = test system: human TGF-beta1 mRNA; assay: Dose-dependent confirmation of antisense inhibition of human TGF-beta1 in HuVEC cells after large-scale synthesis, Lipofectamine 2000, 0.007-15 nM (Example 5); type: cell-based; conditions: for percent inhibition of TGF-beta1: Lipofectamine 2000
Procedure: Cells were plated at a density of 5,000 cells per well and transfected using Lipofectamine™ 2000 reagent with 0.007 nM, 0.021 nM, 0.062 nM, 0.185 nM, 0.556 nM, 1.667 nM, 5 nM, and 15 nM concentrations of antisense oligonucleotide for 4 hours, as specified in Table 5. After a recovery period of approximately 16 hours, RNA was isolated from the cells and TGF-beta1 mRNA levels were measured by quantitative real-time PCR. Human TGF-beta1 primer probe set RTS 2980 was used to measure mRNA levels. TGF-beta1 mRNA levels were adjusted according to total RNA content, as measured by RIBOGREEN®. Results are presented as percent inhibition of TGF-beta1, relative to untreated control cells.

[6] = test system: human TGF-beta1 mRNA; assay: Dose-dependent confirmation of antisense inhibition of human TGF-beta1 in HuVEC cells, electroporation (Example 6); type: cell-based
Procedure: The gapmers from Example 5 (see Table 5) were also tested at various doses in HuVEC cells using electroporation as the transfection reagent. Cells were plated at a density of 20,000 cells per well and transfected using electroporation with 0.15625 nM, 0.3125 nM, 0.625 nM, 1.25 nM, 2.5 nM, 5 nM, 10 nM, and 20 nM concentrations of antisense oligonucleotide for 4 hours, as specified in Table 6. After a recovery period of approximately 16 hours, RNA was isolated from the cells and TGF-beta1 mRNA levels were measured by quantitative real-time PCR. TGF-beta1 mRNA levels were adjusted according to total RNA content, as measured by RIBOGREEN®. Results are presented as percent inhibition of TGF-beta1, relative to untreated control cells.

[7] = test system: BALB/c mice; conditions: mouse, in vivo
[8] = test system: BALB/c mice; assay: Tolerability in BALB/c mice: plasma transaminases ALT and AST (Example 7); conditions: for aspartate transaminase levels: plasma

Q: What does the source list for “105204 (antisense GTCCACCATTAGCACGCGGG; chemistry not given here) [compound 105204]”?
A: Liver % Weight change relative to PBS control ([1]; 25 mg/kg twice a week for 4 weeks): +28%; Liver % Weight change relative to PBS control ([1]; 50 mg/kg twice a week for 4 weeks): +73%; increase in liver weight ([1]; 25 or 50 mg/kg twice a week for 4 weeks, vs PBS control): > 70%

Q: Which results are given for “413982 (antisense GCCTCCGGCTCCCAGCGGCA; sugars from the 5' end e2 d13 e5, backbone and methylation of C not given here) [compound 413982]”?
A: % inhibition ([2]; 10 nM oligonucleotide, HuVEC, relative to untreated control cells, gapmers targeted to SEQ ID NO: 1): 88%; inhibition of a TGF-beta1 mRNA ([2]; threshold lists of Oligo IDs, 10 nM): 60% and 65% and 70% and 75% and 80% and 85%; percent inhibition of TGF-beta1 ([3]; 0.9375 nM): 56%; percent inhibition of TGF-beta1 ([3]; 1.875 nM): 77%; percent inhibition of TGF-beta1 ([3]; 3.75 nM): 88%; percent inhibition of TGF-beta1 ([3]; 7.5 nM): 95%; percent inhibition of TGF-beta1 ([3]; 15 nM): 96%; percent inhibition of TGF-beta1 ([3]; 30 nM): 97%; percent inhibition of TGF-beta1 ([4]; 0.3292 nM): 76%; percent inhibition of TGF-beta1 ([4]; 0.9877 nM): 87%; percent inhibition of TGF-beta1 ([4]; 2.963 nM): 91%; percent inhibition of TGF-beta1 ([4]; 8.8889 nM): 95%; percent inhibition of TGF-beta1 ([4]; 26.6667 nM): 95%; percent inhibition of TGF-beta1 ([4]; 80.0 nM): 93%; percent inhibition of TGF-beta1 ([5]; 0.007 nM): 0%; percent inhibition of TGF-beta1 ([5]; 0.021 nM): 14%; percent inhibition of TGF-beta1 ([5]; 0.062 nM): 31%; percent inhibition of TGF-beta1 ([5]; 0.185 nM): 56%; percent inhibition of TGF-beta1 ([5]; 0.556 nM): 71%; percent inhibition of TGF-beta1 ([5]; 1.667 nM): 79%; percent inhibition of TGF-beta1 ([5]; 5 nM): 89%; percent inhibition of TGF-beta1 ([5]; 15 nM): 92%; IC50 ([5]; Lipofectamine 2000, Example 5): 0.24 nM; percent inhibition of TGF-beta1 mRNA relative to untreated control cells ([6]; 0.15625 nM oligonucleotide): 26%; percent inhibition of TGF-beta1 mRNA relative to untreated control cells ([6]; 0.3125 nM oligonucleotide): 32%; percent inhibition of TGF-beta1 mRNA relative to untreated control cells ([6]; 0.625 nM oligonucleotide): 57%; percent inhibition of TGF-beta1 mRNA relative to untreated control cells ([6]; 1.25 nM oligonucleotide): 79%; percent inhibition of TGF-beta1 mRNA relative to untreated control cells ([6]; 2.5 nM oligonucleotide): 85%; percent inhibition of TGF-beta1 mRNA relative to untreated control cells ([6]; 5.00 nM oligonucleotide): 89%; percent inhibition of TGF-beta1 mRNA relative to untreated control cells ([6]; 10.00 nM oligonucleotide): 93%; percent inhibition of TGF-beta1 mRNA relative to untreated control cells ([6]; 20 nM oligonucleotide): 96%; tolerability compared to Oligo ID 105204 [7]: improved tolerability; alanine transaminase levels ([8]; 25 mg/kg twice a week, Week 2): 59 IU/L; alanine transaminase levels ([8]; 25 mg/kg twice a week, Week 4): 140 IU/L; aspartate transaminase levels ([8]; 25 mg/kg twice a week, Week 2): 74 IU/L; aspartate transaminase levels ([8]; 25 mg/kg twice a week, Week 4): 161 IU/L; alanine transaminase levels ([8]; 50 mg/kg twice a week, Week 2): 77 IU/L; alanine transaminase levels ([8]; 50 mg/kg twice a week, Week 4): 462 IU/L; aspartate transaminase levels ([8]; 50 mg/kg twice a week, Week 2): 92 IU/L; aspartate transaminase levels ([8]; 50 mg/kg twice a week, Week 4): 460 IU/L; increase in ALT/AST ([8]; 25 or 50 mg/kg twice a week for four weeks): < 16 fold
